The source of these data is patent publication US20070010897A1, “Immunochemically modified and sterilized xenografts and allografts” (priority 2005, published 2007).

The test system of one test is Reovirus 3. The test can be described thus: Viral inactivation test, Reovirus 3. As to conditions: Reovirus 3 (NEnv./RNA); single process step (glutaraldehyde or E-beam 17.8 kGy).
Another test has as its system Porcine Parvovirus. The test is described as follows: Viral inactivation test, Porcine Parvovirus. As to conditions: Porcine Parvovirus (NEnv./DNA); single process step (glutaraldehyde or E-beam 17.8 kGy).

For the compound `O=CCCCC=O` [Glutaraldehyde, glutaraldehyde], the “Log10 Reduction” value in the test on Reovirus 3 is 4.24 Log10; with Porcine Parvovirus, 1.91 Log10.
